system: IL-1β production in PMA-differentiated THP-1 cells; assay: IL-1β production in PMA-differentiated THP-1 cells stimulated with gramicidin (hTHP-1 assay containing 2% fetal bovine serum; Procedures 1-3); type: cell-based, human; details: Homo sapiens, THP-1, hTHP-1 assay containing 2% fetal bovine serum; class symbols; read-out: hTHP-1 IC50 (Average IC50 of compounds in hTHP-1 assay)
How it was run: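 THP-1 cells differentiated with PMA (20 ng/ml, 16-18 h), replated in 2% FBS RPMI (50,000 cells/well), preincubated 1 h with compound (top final 100 μM, 3-fold steps, 0.37% DMSO), then stimulated 2 h with gramicidin (5 μM). Supernatant IL-1β measured by HTRF.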

`CC(C)c1cc(C#N)c(F)c(C(C)C)c1CC(=O)N=S(N)(=O)c1sc(C(C)(C)O)cc1F` (stereo not shown) [Example 14, 2-(4-cyano-3-fluoro-2,6-diisopropylphenyl)-N-(3-fluoro-5-(2-hydroxypropan-2-yl)thiophen-2-ylsulfonimidoyl)acetamide] and `CC(C)c1c(F)c(C#N)cc(C2CC2)c1CC(=O)N=S(N)(=O)c1sc(C(C)(C)O)cc1F` (stereo not shown) [Example 19, 2-(4-cyano-6-cyclopropyl-3-fluoro-2-isopropylphenyl)-N-(3-fluoro-5-(2-hydroxypropan-2-yl)thiophen-2-ylsulfonimidoyl)acetamide] fall in the same range of IC50: 8 to 40 nM for the first, 8 to 40 nM for the second.

First: CC(C)c1cc(F)cc(C2CC2)c1CC(=O)N=S(N)(=O)c1ccc(CN(C)C)cc1 (stereo not shown) [Example 15, 2-(2-cyclopropyl-4-fluoro-6-isopropylphenyl)-N-(4-((dimethylamino)methyl)phenyl-sulfonimidoyl)acetamide]
Second: CC(C)c1cc(F)cc(C2CC2)c1CC(=O)N=S(N)(=O)c1sc(C(C)(C)O)cc1F (stereo not shown) [Example 18, 2-(2-cyclopropyl-4-fluoro-6-isopropylphenyl)-N-(3-fluoro-5-(2-hydroxypropan-2-yl)thiophen-2-ylsulfonimidoyl)acetamide]
The IC50 of the first is higher: 1000 to 5000 nM for the first, 40 to 200 nM for the second.

Compared with `CC(C)c1cc(OC(F)F)cc(C(C)C)c1CC(=O)N=S(N)(=O)c1cnc(C(C)(C)O)s1` (stereo not shown) [Example 16, 2-(4-(difluoromethoxy)-2,6-diisopropylphenyl)-N-(2-(2-hydroxypropan-2-yl)thiazol-5-ylsulfonimidoyl)acetamide], `CC(C)c1cc(OC(F)F)cc(C(C)C)c1CC(=O)N=S(N)(=O)c1sc(C(C)(C)O)cc1F` (stereo not shown) [Example 21, 2-(4-(difluoromethoxy)-2,6-diisopropylphenyl)-N-(3-fluoro-5-(2-hydroxypropan-2-yl)thiophen-2-ylsulfonimidoyl)acetamide] is lower in IC50: 200 to 1000 nM for the first, 40 to 200 nM for the second. The second is the more potent here.

Compared with `CC(C)c1cc(F)cc(C(C)C)c1CC(=O)N=S(N)(=O)c1sc(C(C)(C)O)cc1F` (stereo not shown) [Example 17, 2-(4-fluoro-2,6-diisopropylphenyl)-N-(3-fluoro-5-(2-hydroxypropan-2-yl)thiophen-2-ylsulfonimidoyl)acetamide], `CC(C)c1cc(Cl)c(F)c(C2CC2)c1CC(=O)N=S(N)(=O)c1sc(C(C)(C)O)cc1F` (stereo not shown) [Example 20, 2-(4-chloro-2-cyclopropyl-3-fluoro-6-isopropylphenyl)-N-(3-fluoro-5-(2-hydroxypropan-2-yl)thiophen-2-ylsulfonimidoyl)acetamide] is higher in IC50: 8 to 40 nM for the first, 200 to 1000 nM for the second.

`CC(C)c1cc(C#N)cc(C(C)C)c1CC(=O)N=S(N)(=O)c1sc(C(C)(C)O)nc1CO` (stereo not shown) [Example 22, 2-(4-cyano-2,6-diisopropylphenyl)-N-(4-(hydroxymethyl)-2-(2-hydroxypropan-2-yl)thiazol-5-ylsulfonimidoyl)acetamide] and `COCc1cc(C(C)C)c(CC(=O)N=S(N)(=O)c2sc(C(C)(C)O)nc2CO)c(C(C)C)c1` (stereo not shown) [Example 24, 2-(2,6-diisopropyl-4-(methoxymethyl)phenyl)-N-(4-(hydroxymethyl)-2-(2-hydroxypropan-2-yl)thiazole-5-sulfonimidoyl)acetamide] fall in the same range of IC50: 200 to 1000 nM for the first, 200 to 1000 nM for the second.

`CC(C)(O)c1nc(CO)c(S(N)(=O)=NC(=O)Cc2c3c(cc4c2CCC4)CCC3)s1` (stereo not shown) [Example 23, 2-(1,2,3,5,6,7-hexahydros-indacen-4-yl)-N-(4-(hydroxymethyl)-2-(2-hydroxypropan-2-yl)thiazol-5-ylsulfonimidoyl)acetamide] and `CC(C)c1cc(C#N)cc(C2CC2)c1CC(=O)N=S(N)(=O)c1sc(C(C)(C)O)nc1CO` (stereo not shown) [Example 25, 2-(4-cyano-2-cyclopropyl-6-isopropylphenyl)-N-(4-(hydroxymethyl)-2-(2-hydroxypropan-2-yl)thiazole-5-sulfonimidoyl)acetamide] fall in the same range of IC50: 1000 to 5000 nM for the first, 1000 to 5000 nM for the second.

same assay, conditions: Homo sapiens, THP-1, hTHP-1 assay containing 2% fetal bovine serum; given as numeric bound; read-out: hTHP-1 IC50 (Average IC50 of compounds in hTHP-1 assay)

Molecule `CNS(=O)(=NC(=O)Cc1c2c(cc3c1CCC3)CCC2)c1ncc(C(C)(C)O)s1` (stereo not shown) [Example 12, 2-(1,2,3,5,6,7-Hexahydro-s-indacen-4-yl)-N-(5-(2-hydroxypropan-2-yl)-N-methylthiazole-2-sulfonimidoyl)acetamide] has an IC50 greater than 30000 nM.

Source: patent US11370763B2, “Compounds and compositions for treating conditions associated with NLRP activity” (Novartis AG, priority 2017, dated 2022)
